Data reported in PubChem BioAssay AID1918948 (Molecular Pharmacology Branch, DTP, NCI, 2023).

System: K-562 leukemia growth, % test/control
Assay: Anticancer human tumor K-562 cell line growth inhibition;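 on viability, T/C: 100% = DMSO vehicle wells and lower values mean fewer viable cells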
Conditions: spheroids with HUVEC and MSC; for IC50: curve of first compound; for viability, T/C: stronger effect = lower value
How it was run: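 Complex spheroids of tumor cells with HUVEC and human MSCs, exposed to iadademstat combined with other agents. Each agent tested in half-log steps from near clinical Cmax (else 10 microM top), DMSO ≤0.25%.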

[1] = second compound 0.1 µM, first compound 0.0316 µM
[2] = second compound 0.1 µM, first compound 0.1 µM
[3] = second compound 0.316 µM, first compound 0.0316 µM
[4] = second compound 0.316 µM, first compound 0.1 µM
[5] = second compound 1 µM, first compound 0.0316 µM
[6] = second compound 1 µM, first compound 0.1 µM
[7] = second compound 3.16 µM, first compound 0.0316 µM
[8] = second compound 3.16 µM, first compound 0.1 µM
[9] = second compound 10 µM, first compound 0.0316 µM
[10] = second compound 10 µM, first compound 0.1 µM

CC(C)c1c(-c2ccccc2)nc2c(C#N)c[nH]n2c1=O + NC1CCC(NC2CC2c2ccccc2)CC1
IC50 (second compound 0.1 µM): > 10000 nM | IC50 (second compound 0.316 µM): > 10000 nM | IC50 (second compound 1 µM): > 10000 nM | IC50 (second compound 3.16 µM): > 10000 nM | IC50 (second compound 10 µM): > 10000 nM | viability, T/C [1]: 98.7% | viability, T/C [2]: 95.2% | viability, T/C (second compound 0.1 µM, first compound 0.316 µM): 96.6% | viability, T/C (second compound 0.1 µM, first compound 1 µM): 100% | viability, T/C (second compound 0.1 µM, first compound 3.16 µM): 99.1% | viability, T/C (second compound 0.1 µM, first compound 10 µM): 98.9% | viability, T/C [3]: 100% | viability, T/C [4]: 101% | viability, T/C (second compound 0.316 µM, first compound 0.316 µM): 99.8% | viability, T/C (second compound 0.316 µM, first compound 1 µM): 98.6% | viability, T/C (second compound 0.316 µM, first compound 3.16 µM): 99.6% | viability, T/C (second compound 0.316 µM, first compound 10 µM): 98.9% | viability, T/C [5]: 102% | viability, T/C [6]: 102% | viability, T/C (second compound 1 µM, first compound 0.316 µM): 100% | viability, T/C (second compound 1 µM, first compound 1 µM): 99.4% | viability, T/C (second compound 1 µM, first compound 3.16 µM): 100% | viability, T/C (second compound 1 µM, first compound 10 µM): 101% | viability, T/C [7]: 102% | viability, T/C [8]: 102% | viability, T/C (second compound 3.16 µM, first compound 0.316 µM): 99.7% | viability, T/C (second compound 3.16 µM, first compound 1 µM): 102% | viability, T/C (second compound 3.16 µM, first compound 3.16 µM): 103% | viability, T/C (second compound 3.16 µM, first compound 10 µM): 100% | viability, T/C [9]: 95.6% | viability, T/C [10]: 98.7% | viability, T/C (second compound 10 µM, first compound 0.316 µM): 96.8% | viability, T/C (second compound 10 µM, first compound 1 µM): 97% | viability, T/C (second compound 10 µM, first compound 3.16 µM): 97.9% | viability, T/C (second compound 10 µM, first compound 10 µM): 98.4%

CC[C@@]1(O)C(=O)OCc2c1cc1n(c2=O)Cc2cc3c(CN(C)C)c(O)ccc3nc2-1 + NC1CC1c1ccc(-c2cccc(O)c2)cc1
IC50 (second compound 0.1 µM): 7.67 nM | IC50 (second compound 0.316 µM): 5.74 nM | IC50 (second compound 1 µM): 5.4 nM | IC50 (second compound 3.16 µM): 4.98 nM | IC50 (second compound 10 µM): 4.19 nM | viability, T/C (second compound 0.1 µM, first compound 0.000316 µM): 113% | viability, T/C (second compound 0.1 µM, first compound 0.001 µM): 107% | viability, T/C (second compound 0.1 µM, first compound 0.00316 µM): 61.6% | viability, T/C (second compound 0.1 µM, first compound 0.01 µM): 50.7% | viability, T/C [1]: 18.9% | viability, T/C [2]: 8.32% | viability, T/C (second compound 0.316 µM, first compound 0.000316 µM): 109% | viability, T/C (second compound 0.316 µM, first compound 0.001 µM): 106% | viability, T/C (second compound 0.316 µM, first compound 0.00316 µM): 60.2% | viability, T/C (second compound 0.316 µM, first compound 0.01 µM): 38.5% | viability, T/C [3]: 13.9% | viability, T/C [4]: 5.85% | viability, T/C (second compound 1 µM, first compound 0.000316 µM): 107% | viability, T/C (second compound 1 µM, first compound 0.001 µM): 100% | viability, T/C (second compound 1 µM, first compound 0.00316 µM): 59.9% | viability, T/C (second compound 1 µM, first compound 0.01 µM): 36.5% | viability, T/C [5]: 12% | viability, T/C [6]: 6.28% | viability, T/C (second compound 3.16 µM, first compound 0.000316 µM): 104% | viability, T/C (second compound 3.16 µM, first compound 0.001 µM): 99.7% | viability, T/C (second compound 3.16 µM, first compound 0.00316 µM): 56.5% | viability, T/C (second compound 3.16 µM, first compound 0.01 µM): 35.1% | viability, T/C [7]: 11% | viability, T/C [8]: 6.02% | viability, T/C (second compound 10 µM, first compound 0.000316 µM): 99.4% | viability, T/C (second compound 10 µM, first compound 0.001 µM): 94.9% | viability, T/C (second compound 10 µM, first compound 0.00316 µM): 52.4% | viability, T/C (second compound 10 µM, first compound 0.01 µM): 29.4% | viability, T/C [9]: 9.44% | viability, T/C [10]: 3.98%
